Data published in PubChem BioAssay AID1444 (PCMD, 2008).

Target: E3 ubiquitin-protein ligase Mdm2 (Homo sapiens) (UniProt Q00987)
Test: wild-type MDM2 reporter signal enhancers, dose response, cell-based, luciferase luminescence (AID 1444)
Settings: MDM2 wild-type luciferase reporter cells, 2 h

Chain of E3 ubiquitin-protein ligase Mdm2 (Homo sapiens) (Q00987 whole entry, looked up): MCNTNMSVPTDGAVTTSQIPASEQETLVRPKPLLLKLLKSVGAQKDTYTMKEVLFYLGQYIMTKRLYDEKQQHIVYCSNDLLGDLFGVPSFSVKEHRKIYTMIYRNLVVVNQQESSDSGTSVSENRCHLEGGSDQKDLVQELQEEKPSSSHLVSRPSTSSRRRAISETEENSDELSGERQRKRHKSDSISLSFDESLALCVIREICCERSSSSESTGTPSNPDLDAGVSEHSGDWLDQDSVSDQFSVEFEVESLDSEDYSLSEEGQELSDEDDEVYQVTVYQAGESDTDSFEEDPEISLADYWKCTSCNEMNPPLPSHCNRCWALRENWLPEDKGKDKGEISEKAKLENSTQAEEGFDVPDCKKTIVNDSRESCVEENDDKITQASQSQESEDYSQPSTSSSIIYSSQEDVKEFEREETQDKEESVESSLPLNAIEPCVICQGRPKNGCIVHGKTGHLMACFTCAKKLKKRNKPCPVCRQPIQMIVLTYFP

In the case of `CC1=NN(c2cccc(C(=O)O)c2)C(=O)/C1=C\C=C/c1ccccc1`, the EC50 is reported as 720 nM.
